Reference: ChEMBL document CHEMBL1275520, “Metronidazole lacks antibacterial activity in guinea pigs infected with Mycobacterium tuberculosis” (Antimicrob Agents Chemother, 2008)
Active and inactive are the calls of the source. The calls are words filed in the database; no cut-off is given here.

Experiments:
[1] = tested on: Mycobacterium tuberculosis; experiment: Antibacterial activity against Mycobacterium tuberculosis infected in Hartley guinea pig lung assessed as reduction in bacterial load at 100 mg/kg; format: functional, organism-based; set-up: dose 100 mg/kg
[2] = tested on: Mycobacterium tuberculosis; experiment: Antibacterial activity against Mycobacterium tuberculosis infected in Hartley guinea pig spleen assessed as reduction in bacterial load at 100 mg/kg; format: functional, organism-based; set-up: dose 100 mg/kg
[3] = Toxicity in Hartley guinea pig lung assessed as formation of TB lesions by histological analysis; set-up: species or system Cavia porcellus; settings: in vivo
[4] = tested on: Mycobacterium tuberculosis; experiment: Antibacterial activity against Mycobacterium tuberculosis infected in Hartley guinea pig lung assessed as reduction in development of new secondary lesions at 100 mg/kg after 4 weeks by histological analysis relative to control; format: functional, organism-based; set-up: dose 100 mg/kg
[5] = tested on: Mycobacterium tuberculosis; experiment: Antibacterial activity against Mycobacterium tuberculosis infected in Hartley guinea pig lung assessed as reduction in bacteria induced progression of inflammation at 100 mg/kg after 4 weeks by histological analysis relative to control; format: functional, organism-based; set-up: dose 100 mg/kg
[6] = tested on: Mycobacterium tuberculosis; experiment: Antibacterial activity against Mycobacterium tuberculosis infected in Hartley guinea pig spleen assessed as reduction in bacterial load at 30 mg/kg; format: functional, organism-based; set-up: dose 30 mg/kg
[7] = tested on: Mycobacterium tuberculosis; experiment: Antibacterial activity against Mycobacterium tuberculosis infected in Hartley guinea pig lung assessed as reduction in bacteria induced progression of inflammation at 30 mg/kg after 4 weeks by histological analysis relative to control; format: functional, organism-based; set-up: dose 30 mg/kg
[8] = tested on: Mycobacterium tuberculosis; experiment: Antibacterial activity against Mycobacterium tuberculosis infected in Hartley guinea pig lung assessed as reduction in development of new secondary lesions at 30 mg/kg after 4 weeks by histological analysis relative to control; format: functional, organism-based; set-up: dose 30 mg/kg
[9] = tested on: Mycobacterium tuberculosis; experiment: Antibacterial activity against Mycobacterium tuberculosis infected in Hartley guinea pig lung assessed as reduction in bacterial load at 30 mg/kg; format: functional, organism-based; set-up: dose 30 mg/kg

Q: For `Cc1ncc([N+](=O)[O-])n1CCO` [METRONIDAZOLE], which Activity [1] is on record?
A: inactive

Q: What about the Activity [2] of the same compound?
A: inactive

Q: And the Activity [3]?
A: Toxic

Q: And the Activity [4]?
A: inactive

Q: What about the Activity [5] of the same compound?
A: inactive

Q: Which results are given for `NNC(=O)c1ccncc1`?
A: Activity [6]: Active; Activity [7]: Active; Activity [8]: Active; Activity [9]: Active
